Data from PMC7717570, “Deciphering the enzymatic target of a new family of antischistosomal agents bearing a quinazoline scaffold using complementary computational tools” (Journal of Enzyme Inhibition and Medicinal Chemistry, 2020).
Read-outs that look alike come from different tables or passages of the source.

Experiments:
[1] = Microsomal stability, mouse liver microsomes (S9), Phase-I (CYP450-NADPH); type: in vitro ADME; conditions: 5 µM
Experimental: (§1) Mouse or human liver microsomes (S9), reduced nicotinamide adenine dinucleotide phosphate (NADPH) generating system solutions and uridine glucuronosyltransferase (UGT) reaction mix (BD Biosciences) were kept at −80 °C. The test compounds and reference compound diclofenac were formulated in DMSO at […]. The assay was carried out based on the BD Biosciences Guidelines for Use (TF000017 Rev1.0) with minor adaptations. The metabolic stability of the compounds was studied through the CYP450 superfamily (Phase-I metabolism) by fortification with NADPH and through UGT enzymes (Phase-II metabolism) by fortification with uridine diphosphate glucuronic acid (UDPGA). For CYP450 and other NADPH dependent enzymes, the compounds were incubated at 5 µM together with 0.5 mg/mL S9 in potassium phosphate buffer in a reaction started by the addition of 1 mM NADP. At defined time points, 20 µL was withdrawn from the reaction mixture and 80 µL cold acetonitrile (ACN) was added to inactivate the enzymes and precipitate the protein. The mixture was vortexed for 30 s and centrifuged at 4 °C for 5 min to collect the supernatant. For UGT enzymes, the compounds were incubated at 5 µM together with 0.5 mg/mL S9 in a reaction started by the addition of 2 mM UDPGA cofactor. The loss of parent compound was determined using liquid chromatography (UPLC) (Waters Aquity^TM) coupled with tandem quadrupole mass spectrometry (MS^2) (Waters Xevo^TM), equipped with an electrospray ionisation (ESI) interface and operated in multiple reaction monitoring (MRM) mode.

[2] = Microsomal stability, mouse liver microsomes (S9), Phase-II (UGT enzymes); type: in vitro ADME; conditions: 5 µM
Experimental: as §1

[3] = test system: Schistosoma mansoni worm couples; parameters: method as in PMID 30669086; conditions: previously reported, cited from earlier work
[4] = test system: S. mansoni-infected mouse model; test: In vivo antischistosomal efficacy in the S. mansoni-infected mouse model; parameters: species or system Schistosoma mansoni; conditions: mice; for Reduction in total worm burden (percentage change from infected control): sacrificed 10 days post-treatment
Experimental: PZQ was obtained from Egyptian International Pharmaceutical Industries Company (EIPICO) and aminobenzotriazole (ABT) from Fluorochem Ltd.
Male Swiss albino mice (CD-1) obtained from SBSC and weighing 18–20 g were housed under environmentally controlled room temperature of 20–22 °C, 12 h light/dark cycle and 50–60% humidity with food and water ad libitum throughout the acclimatisation and experimental periods. All the animal experiments were conducted in accordance with the Guide for Care and Use of Laboratory Animals and were approved by the Institutional Review Board of Theodor Bilharz Research Institute (TBRI).
Mice were infected with S. mansoni cercariae [provided by Schistosome Biology Supply Center (SBSC)] using body immersion[16] by exposure to 80 ± 10 cercariae/mouse. Infected mice were divided into six groups: groups 1 and 2 were treated the vehicle and the CYP450 inhibitor ABT respectively; groups 3 and 4 were dosed for 5 days with NPD-1246 at 20 and 10 mg/kg, respectively, while group 5 was treated with PZQ at 10 mg/kg/day for 5 days. Group 6 was treated with NPD-1246 combined with PZQ, each at 10 mg/kg/day for 5 days starting from week 7 post-infection. To minimise first-pass elimination, ABT was administered at 100 mg/kg/day for 5 days 2 h prior to each compound administration. NPD-1246 and PZQ were freshly suspended in 2% Cremophore-EL (Sigma-Aldrich). All drug administrations were performed orally.
Ten days post-treatment, all mice were sacrificed and perfused, and the number of worms recovered (worm burden) was quantified and sexed. The number of eggs per gram of liver or intestinal tissue was counted. The percentage of egg developmental stages (oogram pattern) was studied[19] in which eggs at different stages of maturity (from I to IV) were identified and counted. Mature eggs and dead eggs (granular, dark, and semi-transparent) were also counted in three fragments of intestine and the mean number of each stage was calculated.
The percentage reduction of worm or egg burden in each treated group was calculated. […] Results are expressed as mean ± SEM. A two-tailed, unpaired Student’s t-test was used to detect the significance of difference between the means of different groups. Results are considered significant if p value is <0.05.

[5] = test system: Schistosoma mansoni mature worms; parameters: method as in PMID 30669086; conditions: cited from earlier work; for Worm killing (% of total) / Worm killing (female worms) / Worm killing (male worms): day 5, previously reported; for EC50: previously reported
[6] = oral 20 mg/kg/day for 5 days with ABT

O=c1c2ccccc2n(Cc2ccc(C(F)(F)F)cc2)c(=O)n1Cc1ccccc1 [NPD-1246, 3-Benzyl-1-(4-(trifluoromethyl)benzyl)quinazoline-2,4(1H,3H)-dione]
% Parent compound remaining upon incubation ([1]; 0 h): 100% | % Parent compound remaining upon incubation ([1]; 0.25 h): 66% | % Parent compound remaining upon incubation ([1]; 0.5 h): 27% | % Parent compound remaining upon incubation ([1]; 1 h): 8% | % Parent compound remaining upon incubation ([2]; 0 h): 100% | % Parent compound remaining upon incubation ([2]; 0.25 h): 111% | % Parent compound remaining upon incubation ([2]; 0.5 h): 111% | % Parent compound remaining upon incubation ([2]; 1 h): 106% | Uncoupling ([3]; 5 µM): No | Uncoupling ([3]; 10 µM): No | Uncoupling ([3]; 25 µM, listed as NPD-1246 (1)): Uncoupling and Yes | Reduction in number of eggs (%) ([3]; 50 µM): 100% | Uncoupling ([3]; 50 µM, listed as NPD-1246 (1)): Uncoupling and Yes | Reduction in number of eggs (%) ([3]; 100 µM): 100% | Uncoupling ([3]; 100 µM, listed as NPD-1246 (1)): Uncoupling and Yes | Percentage of dead eggs compared to the infected untreated group [4, 6]: significant increase | Reduction in intestinal tissue egg load (percentage change from infected control) [4, 6]: 18% | Reduction in total worm burden (percentage change from infected control) ([4]; oral 20 mg/kg/day for 5 days with ABT 100 mg/kg/day): 24% | Worm killing (% of total) ([5]; 5 µM): 0% | Worm killing (% of total) ([5]; 10 µM): 0% | Worm killing (% of total) ([5]; 25 µM): 0% | Worm killing (% of total) ([5]; 50 µM): 53% | Worm killing (% of total) ([5]; 100 µM): 100% | Worm killing (female worms) ([5]; female worms, 5 µM): 0 | Worm killing (female worms) ([5]; female worms, 10 µM): 0 | Worm killing (female worms) ([5]; female worms, 25 µM): 0 | Worm killing (female worms) ([5]; female worms, 50 µM): 57 | Worm killing (female worms) ([5]; female worms, 100 µM): 100 | EC50 ([5]; female worms, read-out: EC50 (worm killing, female worms)): 50 µM | EC50 ([5]; male and female worms, read-out: EC50 (worm killing)): 50 µM | Worm killing (male worms) ([5]; male worms, 5 µM): 0 | Worm killing (male worms) ([5]; male worms, 10 µM): 0 | Worm killing (male worms) ([5]; male worms, 25 µM): 0 | Worm killing (male worms) ([5]; male worms, 50 µM): 50 | Worm killing (male worms) ([5]; male worms, 100 µM): 100 | EC50 ([5]; male worms, read-out: EC50 (worm killing, male worms)): 50 µM

O=C(C1CCCCC1)N1CC(=O)N2CCc3ccccc3C2C1 (stereo not drawn) [PZQ, praziquantel, reference compound]
Reduction in intestinal tissue egg load (percentage change from infected control) ([4]; oral 10 mg/kg/day (each) for 5 days with ABT): 70% | Reduction in total worm burden (percentage change from infected control) ([4]; oral 10 mg/kg/day (each) for 5 days with ABT 100 mg/kg/day): 63% | Reduction in hepatic tissue egg load (percentage change from infected control) ([4]; oral 10 mg/kg/day (each) for 5 days with ABT, + = increase): 38%
